≈ marks a conversion by molar mass, not a printed value.
Tests used:
Helicobacter pylori [1] = assay: Antibacterial activity against Helicobacter pylori clinical isolate assessed as zone of inhibition at 8 ug/disc; type: functional; settings: read-out: IZ
Helicobacter pylori [2] = assay: Antibacterial activity against drug-sensitive Helicobacter pylori assessed as zone of inhibition at 8 ug/disc; type: functional; settings: read-out: IZ
Staphylococcus aureus [3] = assay: Antibacterial activity against Staphylococcus aureus ATCC 6538 after 18 hrs by two fold serial dilution; type: functional; settings: ATCC 6538, 18 h
Bacillus subtilis [4] = assay: Antibacterial activity against Bacillus subtilis PTCC 1023 after 18 hrs by two fold serial dilution; type: functional; settings: PTCC 1023, 18 h
Klebsiella pneumoniae [5] = assay: Antibacterial activity against Klebsiella pneumoniae ATCC 10031 after 18 hrs by two fold serial dilution; type: functional; settings: ATCC 10031, 18 h
Escherichia coli [6] = assay: Antibacterial activity against Escherichia coli ATCC 8739 after 18 hrs by two fold serial dilution; type: functional; settings: ATCC 8739, 18 h
[7] = test system: Staphylococcus epidermidis; assay: Antibacterial activity against Staphylococcus epidermidis ATCC 12228 after 18 hrs by two fold serial dilution; type: functional; settings: ATCC 12228, 18 h
Enterococcus faecalis [8] = assay: Antibacterial activity against Enterococcus faecalis; type: functional
[9] = test system: Staphylococcus epidermidis; assay: Antibacterial activity against Staphylococcus epidermidis; type: functional
Enterococcus faecalis [10] = assay: Potency index, ratio of chloramphenicol MIC to test compound MIC for Enterococcus faecalis; type: functional
[11] = test system: Staphylococcus epidermidis; assay: Potency index, ratio of chloramphenicol MIC to test compound MIC for Staphylococcus epidermidis; type: functional
Staphylococcus aureus [12] = assay: Antibacterial activity against Staphylococcus aureus; type: functional
Escherichia coli [13] = assay: Antibacterial activity against Escherichia coli; type: functional
Pseudomonas aeruginosa [14] = assay: Antibacterial activity against Pseudomonas aeruginosa; type: functional
Candida albicans = assay: Antifungal activity against Candida albicans; type: functional
Proteus vulgaris = assay: Antibacterial activity against Proteus vulgaris; type: functional
Klebsiella aerogenes [15] = assay: Antibacterial activity against Klebsiella aerogenes; type: functional
Salmonella typhimurium = assay: Antibacterial activity against Salmonella typhimurium; type: functional, Salmonella enterica subsp. enterica serovar Typhimurium; settings: Salmonella enterica
Bacillus subtilis [16] = assay: Antibacterial activity against Bacillus subtilis; type: functional
Proteus = assay: Antibacterial activity against Proteus; type: functional
Enterococcus faecalis [17] = assay: Antibacterial activity against Enterococcus faecalis after 24 hrs; type: functional
Staphylococcus aureus [18] = assay: Antibacterial activity against Staphylococcus aureus ATCC 25923 after 24 hrs; type: functional; settings: ATCC 25923, 24 h
Staphylococcus aureus [19] = assay: Antibacterial activity against Staphylococcus aureus ATCC 29213 after 24 hrs; type: functional; settings: ATCC 29213, 24 h
Staphylococcus aureus [20] = assay: Antibacterial activity against methicillin-resistant Staphylococcus aureus after 24 hrs; type: functional
Pseudomonas aeruginosa [21] = assay: Antibacterial activity against Pseudomonas aeruginosa after 24 hrs; type: functional
Pseudomonas aeruginosa [22] = assay: Antibacterial activity against Pseudomonas aeruginosa ATCC 27853 after 24 hrs; type: functional; settings: ATCC 27853, 24 h
Escherichia coli [23] = assay: Antibacterial activity against Escherichia coli ATCC 25922 after 24 hrs; type: functional; settings: ATCC 25922, 24 h
Klebsiella pneumoniae [24] = assay: Antibacterial activity against Klebsiella pneumoniae after 24 hrs; type: functional
Escherichia coli [25] = assay: Antibacterial activity against drug-resistant Escherichia coli after 24 hrs; type: functional
Escherichia coli [26] = assay: Potency index, ratio of norfloxacin MIC to test compound MIC for drug-resistant Escherichia coli; type: functional
Clostridioides difficile [27] = assay: Antibacterial activity against Clostridium difficile R20291 assessed as zone of inhibition at 2.5 ug/disc after 24 hrs; type: functional; settings: read-out: IZ
Clostridioides difficile [28] = assay: Antibacterial activity against Clostridium difficile ATCC 43603 assessed as zone of inhibition at 2.5 ug/disc after 24 hrs; type: functional; settings: ATCC 43603, 24 h, read-out: IZ
Clostridioides difficile [29] = assay: Antibacterial activity against Clostridium difficile 630 assessed as zone of inhibition at 2.5 ug/disc after 24 hrs; type: functional; settings: Clostridioides difficile, 630, 24 h; read-out: IZ
Klebsiella aerogenes [30] = assay: Antibacterial activity against Enterobacter aerogenes PTCC 1221 after 18 hrs by two fold serial dilution; type: functional; settings: PTCC 1221, 18 h

Work on `Cn1c([N+](=O)[O-])cnc1-c1nnc(S)s1` yielded a zone of inhibition at 8 µg/disc (Helicobacter pylori [1]) of 20.9 to 50 mm and a zone of inhibition at 8 µg/disc (Helicobacter pylori [2]) of 20.9 to 50 mm.
Compound `Cn1cnc([N+](=O)[O-])c1S(=O)(=O)c1nnc(-c2ncc([N+](=O)[O-])n2C)s1` has an MIC (Staphylococcus aureus [3]) of 2 to 64 µg/mL (≈ 5 to 160 µM), an MIC (Bacillus subtilis [4]) of 2 to 64 µg/mL (≈ 5 to 160 µM) and an MIC (Klebsiella pneumoniae [5]) of 2 to 64 µg/mL (≈ 5 to 160 µM). The MIC (Escherichia coli [6]) was 2 to 64 µg/mL (≈ 5 to 160 µM) and the MIC [7] was 2 to 64 µg/mL (≈ 5 to 160 µM).
In the case of `Cc1ncc([N+](=O)[O-])n1CCN1C(=O)S/C(=C\c2ccccc2)C1=O`, the MIC (Enterococcus faecalis [8]) is reported as 62.5 µg/mL (≈ 174 µM), the MIC [9] is reported as 62.5 µg/mL (≈ 174 µM) and the Ratio (Enterococcus faecalis [10]) is reported as 8. The Ratio [11] was 2.
Work on `Cn1c([N+](=O)[O-])cnc1-c1nnc(Cl)s1` yielded a zone of inhibition at 8 µg/disc (Helicobacter pylori [1]) of 20.9 to 50 mm and a zone of inhibition at 8 µg/disc (Helicobacter pylori [2]) of 20.9 to 50 mm.
`Cc1ncc([N+](=O)[O-])n1CCN1C(=O)S/C(=C\c2cccs2)C1=O` was tested, and the MIC (Staphylococcus aureus [12]) was 31.2 to 500 µg/mL (≈ 85.8 to 1370 µM), the MIC (Escherichia coli [13]) was 31.2 to 500 µg/mL (≈ 85.8 to 1370 µM) and the MIC (Pseudomonas aeruginosa [14]) was 31.2 to 500 µg/mL (≈ 85.8 to 1370 µM). It also gave an MIC (Candida albicans) of 31.2 to 500 µg/mL (≈ 85.8 to 1370 µM), an MIC (Proteus vulgaris) of 31.2 to 500 µg/mL (≈ 85.8 to 1370 µM) and an MIC (Klebsiella aerogenes [15]) of 31.2 to 500 µg/mL (≈ 85.8 to 1370 µM). It also gave an MIC (Enterococcus faecalis [8]) of 31.2 to 500 µg/mL (≈ 85.8 to 1370 µM), an MIC [9] of 31.2 to 500 µg/mL (≈ 85.8 to 1370 µM) and an MIC (Salmonella typhimurium) of 31.2 to 500 µg/mL (≈ 85.8 to 1370 µM).
For `CC(=O)N(Cc1ccc(Cl)cc1Cl)c1ccc(S(=O)(=O)NCCCn2c([N+](=O)[O-])cnc2C)cc1`, the MIC (Staphylococcus aureus [12]) was 16 to 64 µg/mL (≈ 29.6 to 118 µM), the MIC (Bacillus subtilis [16]) was 16 to 64 µg/mL (≈ 29.6 to 118 µM) and the MIC (Escherichia coli [13]) was 16 to 64 µg/mL (≈ 29.6 to 118 µM). The MIC (Pseudomonas aeruginosa [14]) was 16 to 64 µg/mL (≈ 29.6 to 118 µM), the MIC (Salmonella typhimurium) was 16 to 64 µg/mL (≈ 29.6 to 118 µM) and the MIC (Proteus) was 16 to 64 µg/mL (≈ 29.6 to 118 µM).
`Cc1ccc(/C=C2\SC(=O)N(CCn3c([N+](=O)[O-])cnc3C)C2=O)cc1` showed an MIC (Staphylococcus aureus [12]) of 31.2 to 500 µg/mL (≈ 83.9 to 1340 µM), an MIC (Escherichia coli [13]) of 31.2 to 500 µg/mL (≈ 83.9 to 1340 µM) and an MIC (Pseudomonas aeruginosa [14]) of 31.2 to 500 µg/mL (≈ 83.9 to 1340 µM). It also gave an MIC (Candida albicans) of 31.2 to 500 µg/mL (≈ 83.9 to 1340 µM), an MIC (Proteus vulgaris) of 31.2 to 500 µg/mL (≈ 83.9 to 1340 µM) and an MIC (Klebsiella aerogenes [15]) of 31.2 to 500 µg/mL (≈ 83.9 to 1340 µM). It also gave an MIC (Enterococcus faecalis [8]) of 31.2 to 500 µg/mL (≈ 83.9 to 1340 µM), an MIC [9] of 31.2 to 500 µg/mL (≈ 83.9 to 1340 µM) and an MIC (Salmonella typhimurium) of 31.2 to 500 µg/mL (≈ 83.9 to 1340 µM).
Work on `COc1cc(/C=C(\C#N)n2cc([N+](=O)[O-])nc2C)c2c(c1OCc1ccccc1F)CN1CCc3cc4c(cc3C1C2)OCO4` (stereo not given) yielded an MIC (Enterococcus faecalis [17]) of 3 to 1020 µM (≈ 1.83 to 622 µg/mL), an MIC (Staphylococcus aureus [18]) of 3 to 1020 µM (≈ 1.83 to 622 µg/mL) and an MIC (Staphylococcus aureus [19]) of 3 to 1020 µM (≈ 1.83 to 622 µg/mL). The MIC (Staphylococcus aureus [20]) was 3 to 1020 µM (≈ 1.83 to 622 µg/mL), the MIC (Pseudomonas aeruginosa [21]) was 3 to 1020 µM (≈ 1.83 to 622 µg/mL) and the MIC (Pseudomonas aeruginosa [22]) was 3 to 1020 µM (≈ 1.83 to 622 µg/mL). For the same compound, the MIC (Escherichia coli [23]) was 3 to 1020 µM (≈ 1.83 to 622 µg/mL), the MIC (Klebsiella pneumoniae [24]) was 3 to 1020 µM (≈ 1.83 to 622 µg/mL) and the MIC (Escherichia coli [25]) was 3 µM (≈ 1.83 µg/mL). It also gave a Ratio (Escherichia coli [26]) of 33.
With `C/C=C/c1nc(CS(=O)(=O)c2ccccc2)c([N+](=O)[O-])n1C` the zone of inhibition at 2.5 µg/disc (Clostridioides difficile [27]) was 13.5 to 24.5 mm, the zone of inhibition at 2.5 µg/disc (Clostridioides difficile [28]) was 13.5 to 24.5 mm and the zone of inhibition at 2.5 µg/disc (Clostridioides difficile [29]) was 13.5 to 24.5 mm.
With `COc1ccc(-c2nnc(Sc3c([N+](=O)[O-])ncn3C)s2)cc1` the MIC (Staphylococcus aureus [3]) was 4 to 32 µg/mL (≈ 11.4 to 91.6 µM), the MIC (Bacillus subtilis [4]) was > 64 µg/mL and the MIC (Klebsiella pneumoniae [5]) was > 64 µg/mL. For the same compound, the MIC (Escherichia coli [6]) was > 64 µg/mL and the MIC (Klebsiella aerogenes [30]) was > 64 µg/mL.
`Cn1cnc([N+](=O)[O-])c1Sc1nnc(-c2ncc([N+](=O)[O-])n2C)s1` was tested, and the MIC (Staphylococcus aureus [3]) was 4 to 32 µg/mL (≈ 10.9 to 86.9 µM), the MIC (Bacillus subtilis [4]) was > 64 µg/mL and the MIC (Klebsiella pneumoniae [5]) was > 64 µg/mL. The MIC (Escherichia coli [6]) was > 64 µg/mL and the MIC (Klebsiella aerogenes [30]) was > 64 µg/mL.
For `CC(=O)Nc1nnc(Sc2c([N+](=O)[O-])ncn2C)s1`, the MIC (Staphylococcus aureus [3]) was 4 to 32 µg/mL (≈ 13.3 to 107 µM), the MIC (Bacillus subtilis [4]) was > 64 µg/mL and the MIC (Klebsiella pneumoniae [5]) was > 64 µg/mL. For the same compound, the MIC (Escherichia coli [6]) was > 64 µg/mL and the MIC (Klebsiella aerogenes [30]) was > 64 µg/mL.
`Cn1cnc([N+](=O)[O-])c1S(=O)(=O)c1nnc(-c2ccc([N+](=O)[O-])o2)s1` gave an MIC (Staphylococcus aureus [3]) of 2 to 64 µg/mL (≈ 5.18 to 166 µM), an MIC (Bacillus subtilis [4]) of 2 to 64 µg/mL (≈ 5.18 to 166 µM) and an MIC (Klebsiella pneumoniae [5]) of 2 to 64 µg/mL (≈ 5.18 to 166 µM). It also gave an MIC (Escherichia coli [6]) of 2 to 64 µg/mL (≈ 5.18 to 166 µM) and an MIC [7] of 2 to 64 µg/mL (≈ 5.18 to 166 µM).

Reference: ChEMBL document CHEMBL4304773, “Nitroimidazole-containing compounds and their antibacterial and antitubercular activities” (2019)
